These compounds were tested against T1, human TRPM8 (Homo sapiens, UniProt Q7Z2W7) (assay: Luminescence readout assay for measuring intracellular calcium, icilin activation). Conditions: CHO cells expressing human TRPM8, aequorin luminescence, 1 μM icilin activation; read-out: hTRPM8 IC50.
T1 construct: expressed in transfected cells; host or cells: Chinese hamster ovary (CHO) cells, T-REx tetracycline-inducible system, co-transfected with aequorin
Type: cell-based
Outline: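 The read-out was luminescence reporting intracellular calcium, recorded by a CCD-based luminometer. Compounds were preincubated for 2.5 min before agonist challenge with 1 μM icilin. Human TRPM8 was expressed in a stable T-REx CHO line, induced with 0.5 μg/mL tetracycline the day before.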

T1 sequence (Q7Z2W7 whole entry): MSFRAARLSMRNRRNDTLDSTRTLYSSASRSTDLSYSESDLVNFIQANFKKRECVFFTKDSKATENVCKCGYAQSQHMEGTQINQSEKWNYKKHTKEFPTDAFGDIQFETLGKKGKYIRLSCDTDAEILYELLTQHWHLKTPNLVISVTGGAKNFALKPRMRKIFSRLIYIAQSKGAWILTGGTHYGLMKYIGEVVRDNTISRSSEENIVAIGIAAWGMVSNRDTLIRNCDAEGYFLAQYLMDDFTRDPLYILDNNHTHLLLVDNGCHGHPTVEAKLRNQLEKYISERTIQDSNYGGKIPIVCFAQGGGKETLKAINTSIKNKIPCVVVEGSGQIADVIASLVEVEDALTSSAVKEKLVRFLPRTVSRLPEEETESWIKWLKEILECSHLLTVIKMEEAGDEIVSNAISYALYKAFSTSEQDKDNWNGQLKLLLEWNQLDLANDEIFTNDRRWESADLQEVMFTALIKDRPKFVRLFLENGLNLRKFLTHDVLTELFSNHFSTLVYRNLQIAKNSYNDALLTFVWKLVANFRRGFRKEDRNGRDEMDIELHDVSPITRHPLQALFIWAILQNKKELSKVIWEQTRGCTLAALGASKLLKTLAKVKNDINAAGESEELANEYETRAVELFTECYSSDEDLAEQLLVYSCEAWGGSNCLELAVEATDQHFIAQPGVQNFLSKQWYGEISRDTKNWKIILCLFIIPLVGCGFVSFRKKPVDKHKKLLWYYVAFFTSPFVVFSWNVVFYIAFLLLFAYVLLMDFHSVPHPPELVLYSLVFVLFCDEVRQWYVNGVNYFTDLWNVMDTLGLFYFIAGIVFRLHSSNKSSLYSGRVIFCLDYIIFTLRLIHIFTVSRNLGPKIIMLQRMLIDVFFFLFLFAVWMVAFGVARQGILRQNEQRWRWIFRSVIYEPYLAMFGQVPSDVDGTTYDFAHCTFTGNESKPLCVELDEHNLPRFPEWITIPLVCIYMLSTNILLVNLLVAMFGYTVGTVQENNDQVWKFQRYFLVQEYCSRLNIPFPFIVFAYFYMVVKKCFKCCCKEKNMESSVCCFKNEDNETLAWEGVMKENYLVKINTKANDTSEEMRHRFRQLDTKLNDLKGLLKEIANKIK

Structure (SMILES)	IC50
O=C(N[C@@H](c1ccc(C(F)(F)F)c(F)c1)c1ncccc1C(F)(F)F)c1cnccn1 [Example 111, (S)-N-((3-fluoro-4-(trifluoromethyl)phenyl)(3-(trifluoromethyl)pyridin-2-yl)methyl)pyrazine-2-carboxamide]	55.9 nM
O=C(N[C@@H](c1ccc(C(F)(F)F)c(F)c1)c1ncccc1C(F)(F)F)c1ccccn1 [Example 112, (S)-N-((3-fluoro-4-(trifluoromethyl)phenyl)(3-(trifluoromethyl)pyridin-2-yl)methyl)picolinamide]	84.4 nM
O=C(N[C@@H](c1ccc(C(F)(F)F)cc1)c1ncccc1C(F)(F)F)c1ccccc1I [Example 118, (S)-2-iodo-N-((4-(trifluoromethyl)phenyl)(3-(trifluoromethyl)pyridin-2-yl)methyl)benzamide]	90.5 nM
O=C(N[C@@H](c1ccc(C(F)(F)F)c(F)c1)c1ncccc1C(F)(F)F)[C@@H]1CCCO1 [Example 119, (S)-N-((S)-(3-fluoro-4-(trifluoromethyl)phenyl)(3-(trifluoromethyl)pyridin-2-yl)methyl)THF-2-carboxamide]	100 nM
CC(C)(O)c1ccc(C(=O)N[C@@H](c2ccc(C(F)(F)F)cc2)c2ncccc2C(F)(F)F)cc1 [Example 121, (S)-4-(2-hydroxypropan-2-yl)-N-((4-(trifluoromethyl)phenyl)(3-(trifluoromethyl)pyridin-2-yl)methyl)benzamide]	247 nM
O=C(N[C@@H](c1ccc(C(F)(F)F)cc1)c1ncccc1C(F)(F)F)c1ccc(I)cc1 [Example 122, (S)-4-iodo-N-((4-(trifluoromethyl)phenyl)(3-(trifluoromethyl)pyridin-2-yl)methyl)benzamide]	107 nM
O=C(N[C@@H](c1ccc(C(F)(F)F)c(F)c1)c1ncccc1C(F)(F)F)[C@H]1CCCO1 [Example 123, (R)-N-((S)-(3-fluoro-4-(trifluoromethyl)phenyl)(3-(trifluoromethyl)pyridin-2-yl)methyl)THF-2-carboxamide]	149 nM
COc1ccc(C(=O)N[C@@H](c2ccc(F)cc2)c2ncccc2C(F)(F)F)cn1 [Example 124, (S)-N-((4-fluorophenyl)(3-(trifluoromethyl)pyridin-2-yl)methyl)-6-methoxynicotinamide]	190 nM
O=C(N[C@@H](c1ccc(F)cc1)c1ncccc1C(F)(F)F)c1ccccc1 [Example 126, (S)-N-((4-fluorophenyl)(3-(trifluoromethyl)pyridin-2-yl)methyl)benzamide]	194 nM
CC(C)c1ccc(C(=O)N[C@@H](c2ccc(C(F)(F)F)cc2)c2ncccc2C(F)(F)F)cc1 [Example 127, (S)-4-isopropyl-N-((4-(trifluoromethyl)phenyl)(3-(trifluoromethyl)pyridin-2-yl)methyl)benzamide]	584 nM
O=C(N[C@@H](c1ccc(C(F)(F)F)cc1)c1ncccc1C(F)(F)F)c1ccc2cccnc2n1 [Example 128, (S)-N-((4-(trifluoromethyl)phenyl)(3-(trifluoromethyl)pyridin-2-yl)methyl)-1,8-naphthyridine-2-carboxamide 2,2,2-trifluoroacetate]	125 nM
O=C(N[C@@H](c1ccc(C(F)(F)F)c(F)c1)c1ncccc1C(F)(F)F)c1ccc2cccnc2n1 [Example 129, (S)-N-((3-fluoro-4-(trifluoromethyl)phenyl)(3-(trifluoromethyl)pyridin-2-yl)methyl)-1,8-naphthyridine-2-carboxamide 2,2,2-trifluoroacetate]	114 nM
O=C(N[C@@H](c1ccc(C(F)(F)F)c(F)c1)c1ncccc1C(F)(F)F)c1ccc2ncccc2c1 [Example 130, (S)-N-((3-fluoro-4-(trifluoromethyl)phenyl)(3-(trifluoromethyl)pyridin-2-yl)methyl)quinoline-6-carboxamide bis (2,2,2-trifluoroacetate)]	24.7 nM
Nc1ccc(C(=O)N[C@@H](c2ccc(C(F)(F)F)cc2)c2ncccc2C(F)(F)F)cn1 [Example 134, (S)-6-amino-N-((4-(trifluoromethyl)phenyl)(3-(trifluoromethyl)pyridin-2-yl)methyl)nicotinamide]	31 nM
Nc1nc(C(=O)N[C@@H](c2ccc(C(F)(F)F)cc2)c2ncccc2C(F)(F)F)cs1 [Example 136, (S)-2-amino-N-((4-(trifluoromethyl)phenyl)(3-(trifluoromethyl)pyridin-2-yl)methyl)thiazole-4-carboxamide 2,2,2-trifluoroacetate]	121 nM
Cc1ncc(C(=O)N[C@@H](c2ccc(C(F)(F)F)cc2)c2ncccc2C(F)(F)F)c(N)n1 [Example 137, (S)-4-amino-2-methyl-N-((4-(trifluoromethyl)phenyl)(3-(trifluoromethyl)pyridin-2-yl)methyl)pyrimidine-5-carboxamide]	94.9 nM
O=C(N[C@@H](c1ccc(C(F)(F)F)cc1)c1ncccc1C(F)(F)F)c1cccs1 [Example 138, (S)-N-((4-(trifluoromethyl)phenyl)(3-(trifluoromethyl)pyridin-2-yl)methyl)thiophene-2-carboxamide]	46.4 nM

The remaining lines, values ahead:

IC50	Structure (SMILES)
31.1 nM	O=C(N[C@@H](c1ccc(C(F)(F)F)cc1)c1ncccc1F)c1ccc2nccc(Cl)c2c1 [Example 113, (S)-4-chloro-N-((3-fluoropyridin-2-yl)(4-(trifluoromethyl)phenyl)methyl)quinoline-6-carboxamide 2,2,2-trifluoroacetate]
50.6 nM	O=C(N[C@@H](c1ccc(C(F)(F)F)cc1)c1ncccc1F)c1ccc2nccc(O)c2c1 [Example 114, (S)-N-((3-fluoropyridin-2-yl)(4-(trifluoromethyl)phenyl)methyl)-4-hydroxyquinoline-6-carboxamide 2,2,2-trifluoroacetate]
56.2 nM	CCc1ccc([C@H](NC(=O)c2ccc3cccnc3c2)c2ncccc2C(F)(F)F)cc1 [Example 115, (S)-N-((4-ethylphenyl)(3-(trifluoromethyl)pyridin-2-yl)methyl)quinoline-7-carboxamide]
42.9 nM	O=C(N[C@@H](c1ccc(C(F)(F)F)cc1)c1ncccc1C(F)(F)F)c1ccc2nccc(Cl)c2c1 [Example 116, (S)-4-chloro-N-((4-(trifluoromethyl)phenyl)(3-(trifluoromethyl)pyridin-2-yl)methyl)quinoline-6-carboxamide 2,2,2-trifluoroacetate]
70 nM	O=C(N[C@@H](c1ccc(C(F)(F)F)cc1)c1ncccc1C(F)(F)F)c1cccc(I)c1 [Example 117, (S)-3-iodo-N-((4-(trifluoromethyl)phenyl)(3-(trifluoromethyl)pyridin-2-yl)methyl)benzamide]
59.4 nM	O=C(N[C@@H](c1ccc(C(F)(F)F)cc1)c1ncccc1F)c1ccc2c(Cl)ccnc2c1 [Example 120, (S)-4-chloro-N-((3-fluoropyridin-2-yl)(4-(trifluoromethyl)phenyl)methyl)quinoline-7-carboxamide 2,2,2-trifluoroacetate]
176 nM	O=C(N[C@@H](c1ccc(C(F)(F)F)cc1)c1ncccc1F)c1ccc2ccc(=O)[nH]c2c1 [Example 125, (S)-N-((3-fluoropyridin-2-yl)(4-(trifluoromethyl)phenyl)methyl)-2-oxo-1,2-dihydroquinoline-7-carboxamide]
19.4 nM	O=C(N[C@@H](c1ccc(C(F)(F)F)cc1)c1ncccc1C(F)(F)F)c1ccc(Cl)nc1 [Example 135, (S)-6-chloro-N-((4-(trifluoromethyl)phenyl)(3-(trifluoromethyl)pyridin-2-yl)methyl)nicotinamide]
